This note sets out measurements from patent publication US5894021A, “Iontophoretic transdermal drug-delivery interface and skin treatment agent and treatment method using the same” (Kabushiki Kaisya Advance, priority 1994, dated 1999).

The nature of data set [1]: Prevention test of skin adsorption of drug: nonabsorbed calcitonin in solution on excised rat skin (Example 2), HPLC. Type of data set: in vitro ADME, male hairless rats. The conditions noted are these: after one hour, 2 μg/ml calcitonin, 60 min. The method, then:
The stomach skin of male hairless rats of 13 weeks age were sheared by electric shears, then lightly rubbed and disinfected by absorbent cotton containing an aqueous solution of 70% ethanol. The skin was separated by scissors, then placed on a paper towel moistened with physiological saline with the epidermal side facing up. An acrylic chamber cup (18 mm diameter and 20 mm height) was immersed for 5 minutes in a silicone coating and an aqueous solution of 1% benzalkonium chloride, then was fully rinsed and washed by distilled water. The acrylic chamber cup was adhered to the skin by medicinal adhesive and dried, then filled with 2 ml of an aqueous solution of 1% benzalkonium chloride (Group 2)or distilled water as a control (Group 1) and allowed to stand for 5 minutes. The solution was removed then the cup was fully rinsed and washed by distilled water. As one example of the polypeptide drug, a solution of 2 μg/ml of calcitonin (synthetic salmon calcitonin made by Sigma Co.) in distilled water was prepared. A 2 ml amount each were added to two acrylic chamber cups treated as explained above which were then allowed to stand. Amounts of 100 μl each were sampled after 1, 2, and 6 hours and the amount of nonabsorbed calcitonin in the solution was measured by high pressure liquid chromatography.

The test system of data set [2] is calcium value in the rat serum. Put plainly: Transdermal iontophoretic administration of calcitonin in rats with benzalkonium chloride-treated or nontreated nylon porous film (Example 1), serum calcium. The format is in vivo, SD male rats. The conditions noted are these: 2 IU (0.4 μg) per sheet, 6 V, 30 kHz, 30% duty, 45 minutes. The text has this: These drug holding members, that is, the ion exchange membrane (4), nonwoven fabric (5), and nylon porous member (6) (in this case the holding including at least contact with a drug contact member also acceptable) are coated or impregnated uniformly by an aqueous solution of 0.01% benzalkonium chloride or else immersed in an aqueous solution of the same for treatment, then stripped of water and dried. Of the thus obtained AC-220 membrane, nonwoven fabric, and nylon porous member, the skin contact surface of the nylon porous member has deposited on it a bioactive peptide by a means such as spray coating or impregnation followed by drying for retention. The portion of the nylon porous member (6) coming into contact with the live skin has the drug (11) affixed to it. At the edges of the nylon porous member (6) and under the support (10) are for example disposed an adhesive tape (8) composed of Blenderm® (made by 3M Health Care Ltd.).
Method: Under pentobarbital anesthesia, 7 week old SD male rats had their stomach skin sheared by electric shears and shaved by a shaver, then absorbent cotton containing an aqueous solution of 70% by weight ethanol was used to lightly rub and disinfect the area. […] The serum calcium was measured by the o-cresol phthalein complex method (Calcium C Test Wako made by Wako Pure Chemical Industries, Ltd.).

Data set [3] concerns calcium value in the rat serum. Put plainly: Transdermal iontophoretic administration of calcitonin in rats after skin cleaning (Example 3), serum calcium. The format is in vivo, male SD rats. The conditions noted are these: 0.04 μg per sheet, 6 V, 30 kHz, 30% duty, 45 minutes. As to the method:
Under pentobarbital anesthesia, 7 week old male SD rats had their stomach skin sheared by electric shears and shaved by a shaver, then absorbent cotton containing an aqueous solution of 70% by weight ethanol (Group 3) or absorbent cotton containing an aqueous solution of 70% by weight ethanol plus 0.01% benzalkonium chloride (Group 4) was used to lightly rub and disinfect the areas. Calcitonin dried and held in an amount of 0.04 μg per sheet of drug film (synthetic salmon calcitonin made by Sigma Co.) was dissolved in an aqueous solution at the time of use and used for one rat. The conditions of conductance of power in the iontophoresis were a depolarization type constant voltage high duty pulse of 6 V, 30 kHz, and 30% duty applied for 45 minutes. The blood was sampled after a predetermined time from the jugular vein and was centrifugally separated at 12,000 rpm for 5 minutes. The supernatant was used as the serum sample. The calcium in the blood was measured by the o-cresol phthalein complex method (Calcium C Test Wako made by Wako Pure Chemical Industries, Ltd.).

As for calcitonin, the “amount of calcitonin in the aqueous solution in terms of the initially prepared concentration” value is “approximately 60%” in data set [1] (skin washed with 1% benzalkonium chloride (Group 2)) and “approximately 30%” in data set [1] (skin washed with just distilled water (Group 1)). Moreover, the figures for the “maximum reduction in the calcium value in the rat serum” value in data set [2] (nylon porous film not coated with surfactant (nontreated group)), in data set [2] (nylon porous film treated by benzalkonium chloride (treated group)) and in data set [3] (skin cleaned by 70% ethanol alone (Group 3)) were “approximately 17%”, 28% and “approximately 13%”, respectively. For the same substance, in data set [3] (skin cleaned by 70% by weight ethanol containing 0.01% benzalkonium chloride (Group 4)), the “maximum reduction in the calcium value in rat serum” value was “about 30%”.
